Km data for one molecule are collected here from article PMC8229335, “Screening of Novel Laccase Producers—Isolation and Characterization of Cold-Adapted Laccase from Kabatiella bupleuri G3 Capable of Synthetic Dye Decolorization” (Biomolecules, 2021).

SMILES strings stand for the structures.

The target in the assay is T1, K. bupleuri laccase G3 (Aureobasidium bupleuri, UniProt A0A8F5DNG6).
T1 construct: about 70-75 kDa by SDS-PAGE
T1 sequence (A0A8F5DNG6 21-645): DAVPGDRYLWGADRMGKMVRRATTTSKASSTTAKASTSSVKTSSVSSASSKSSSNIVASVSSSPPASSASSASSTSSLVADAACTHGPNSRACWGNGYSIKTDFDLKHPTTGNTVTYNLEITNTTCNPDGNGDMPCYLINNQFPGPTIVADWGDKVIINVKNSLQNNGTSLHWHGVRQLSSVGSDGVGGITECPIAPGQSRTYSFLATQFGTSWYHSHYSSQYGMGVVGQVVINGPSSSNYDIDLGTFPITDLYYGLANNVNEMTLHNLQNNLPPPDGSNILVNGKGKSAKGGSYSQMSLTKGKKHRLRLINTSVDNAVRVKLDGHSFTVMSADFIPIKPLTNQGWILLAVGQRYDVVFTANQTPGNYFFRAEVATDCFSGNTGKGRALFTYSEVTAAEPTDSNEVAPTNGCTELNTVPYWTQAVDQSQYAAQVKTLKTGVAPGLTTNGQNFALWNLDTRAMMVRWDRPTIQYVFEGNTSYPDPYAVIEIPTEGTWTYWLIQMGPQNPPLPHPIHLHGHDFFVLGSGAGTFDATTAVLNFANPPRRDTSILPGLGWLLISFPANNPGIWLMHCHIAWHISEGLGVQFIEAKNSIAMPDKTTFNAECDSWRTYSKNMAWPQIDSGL
The assay can be described thus: spectrophotometric oxidation at […] nm; Lineweaver-Burk. The settings on record: pH 3.5, 30 °C; partially purified native enzyme; read-out: apparent Km. The class given is biochemical.

Usually Km stands for the concentration of substrate that gives half-maximal velocity. As to `CCn1c(=NN=c2sc3cc(S(=O)(=O)O)ccc3n2CC)sc2cc(S(=O)(=O)O)ccc21` [ABTS, 2,2’-azino-bis(3-ethylbenzothiazoline-6-sulfonic acid)], the Michaelis-Menten constant (Km) came to 584 µM.
